Reference: patent publication US7291710B2, “Detection of spectrin and spectrin proteolytic cleavage products in assessing nerve cell damage” (priority 2002, dated 2007)
Where a SMILES comes first, the peptide text is derived from it.

How the values were obtained:
[1] = system: calpain and caspase-3 activation in septo-hippocampal cultures; experiment: Treatment of septo-hippocampal cultures with calpain, caspase and protein synthesis inhibitors; assay type: cell-based, rat; details: for antagonism of calpain and caspase-3 activation accompanying staurosporine-induced apoptosis: 37.5 μM CalpInh-II, 30 μM Z-D-DCB, pretreatment 1 hour
Experimental: (§1) Septo-hippocampal cultures. Eighteen day old rat fetuses were removed from deeply anesthetized dams. Septi and hippocampi were dissected in a dissection buffer (HBSS, with 4.2 mM bicarbonate, 1 mM pyruvate, 20 mM HEPES, 3 mg/ml BSA, pH 7.25). After rinsing in DMEM-DM, tissue was dissociated by trituration through the narrow pore of a flame-constricted Pasteur pipette. Dissociated cells were resuspended in DMEM with 10% fetal calf serum (DMEM-10S) and plated on 24-well poly-L-lysine coated plastic culture plates or 12 mm of German glass (Erie Scientific Co.) at a density of 4.36×10^5 cells/mL. Cultures were maintained in a humidified incubator in an atmosphere of 5% CO2 at 37° C. After 5 days of culture, the media was changed to DMEM-DM. […] Subsequent media changes were carried out three times a week. By day 10 in vitro, astrocytes formed a confluent monolayer beneath morphologically mature neurons.
Treatment of septo-hippocampal cultures with calpain, caspase, and protein synthesis inhibitors. Sister cultures were pretreated with either 37.5 μM calpain inhibitor-II (CalpInh-II) (Boehringer Mannheim), 30 μM of the pan-caspase inhibitor Z-D-DCB (obtained from Biochem), or 1 μg/mL of the protein synthesis inhibitor, cycloheximide (Sigma), […] The inhibitor concentrations provide optimal inhibition of calpains, caspase-3 (CPP32) proteases, and protein synthesis. […] This investigation also employed degradation of αII-spectrin to provide independent confirmation that the concentrations of CalpInh-II and Z-D-DCB used in this study to inhibit calpains and caspase-3 proteases. […] Following each experiment, cells were fixed for staining, or protein or DNA extraction was performed.
SDS-Polyacrylamide Gel electrophoresis and immunoblotting. At the end of an experiment, cells were harvested from 5 identical culture wells and collected in 15 ml centrifuge tubes and centrifuged at 3000 g for 5 min. The medium was removed and the pellet cells were rinsed with 1× DPBS. […]

[2] = system: septo-hippocampal cultures; experiment: αII-spectrin immunoblot of septo-hippocampal cultures after maitotoxin or staurosporine insult; assay type: cell-based, rat; details: maitotoxin 30 min, 1 hr; staurosporine 3 hr; anti-α-spectrin antibody FG 6090
Experimental: as §1, with “By day 10 in vitro, astrocytes formed a confluent monolayer beneath morphologically mature neurons.” left out
Pharmacological treatment of septo-hippocampal cells with maitotoxin. Ten day old septo-hippocampal cultures were challenged with 0.01-2.0 nM of maitotoxin (Wako Products, Richmond, Va., Cat.# 131-10731) in DMEM-DM and cell viability was monitored at various post-injury time points. […]
Treatment of cultures with staurosporine. Ten day old septo-hippocampal cultures were challenged with 0.05-2.0 μM of staurosporine (Calbiochem, La Jolla, Calif., Cat. # 569397) in DMEM-DM and cell viability was monitored at various post-injury time points. […]

Structure (SMILES) | antagonism of calpain and caspase-3 activation accompanying staurosporine-induced apoptosis [1] | type of cell death and protease-specific SBDP detected [2] | also measured
CSCC[C@@H](C=O)NC(=O)[C@H](CC(C)C)NC(=O)[C@H](CC(C)C)NC(C)=O [CalpInh-II, N-acetyl-Leu-Leu-methioninal] (Ac-Leu-Leu-Met-aldehyde) | could antagonize calpain and caspase-3 activation | – | –
O=C(O)CC(NC(=O)OCc1ccccc1)C(=O)COC(=O)c1c(Cl)cccc1Cl [Z-D-DCB, carbobenzoxy-Asp-CH2—OC (O)-2-6-dichlorobenzene] | could antagonize calpain and caspase-3 activation | – | –
C[C@@H]1C[C@@H]([C@H](O)CC2CC(=O)NC(=O)C2)C(=O)[C@@H](C)C1 [cycloheximide] | – | – | effect on calpain and caspase activation and apoptotic cell death ([1]; 1 μg/mL cycloheximide): blocked calpain and caspase activation as well as apoptotic cell death
C=CC[C@H](C)[C@H](C)C[C@@H](O)[C@H](O)[C@@H]1CC[C@@]2(C)O[C@@]3(C)C[C@@]4(C)O[C@H]5/C=C\C[C@H]6O[C@H]7C[C@H]8O[C@H]9C[C@@]%10(C)O[C@@](C)([C@@H]%11CC[C@H]%12O[C@@]%13(C)C[C@H]%14O[C@@]%15(C)C[C@H]%16O[C@@]%17(C)C[C@@H](O)[C@H]([C@@H]%18O[C@H]%19[C@H](O)[C@@H](O)[C@H](C[C@H](O)C[C@@H](O)[C@@H]%20O[C@H]%21[C@H](O)[C@@H](O)[C@H]([C@@H]%22O[C@@H]%23[C@H](O)[C@H]%24O[C@H]%25C[C@H]%26O[C@@H](C[C@H](O)[C@@H](O)[C@H]%27O[C@H]%28[C@H](O)[C@H]%29O[C@H]%30C[C@H]%31O[C@H]%32[C@@H](O)[C@@H](O)[C@H]([C@H](C)[C@H](O)[C@H](C)CC[C@H](OS(=O)(=O)O)[C@H](O)[C@H](C)C[C@@H](O)C(=C)/C(C)=C/CO)O[C@@H]%32[C@H](O)C[C@]%31(C)O[C@@H]%30C[C@]%29(C)O[C@@H]%28C[C@H]%27O)[C@H](OS(=O)(=O)O)[C@H](O)[C@@H]%26O[C@@H]%25C[C@@H]%24O[C@H]%23[C@H](O)[C@H]%22O)O[C@H]%21C[C@H]%20O)O[C@H]%19C[C@H]%18O)O[C@@H]%17[C@H](O)[C@]%16(C)O[C@@H]%15CC[C@]%14(C)O[C@@H]%13C[C@@H]%12O%11)[C@H](O)C[C@@H]%10O[C@]9(C)CC[C@]8(C)O[C@]7(C)C[C@@H]6O[C@@H]5C[C@@H]4O[C@@H]3C[C@@H]2O1 [maitotoxin] | – | necrotic cell death mediated by calpain (145 kDa SBDP) but not caspase-3 (120 kDa SBDP) | –
CN[C@@H]1C[C@H]2O[C@@](C)([C@@H]1OC)n1c3ccccc3c3c4c(c5c6ccccc6n2c5c31)C(=O)NC4 [staurosporine] | – | apoptotic cell death mediated by caspase-3 (120 kDa SBDP) but not by calpain (145 kDa SBDP) | –
